Test results published in ChEMBL document CHEMBL5518237, “Design of Novel 2-Phenylquinazolin-4-amines as Selective CYP1B1 Inhibitors for Overcoming Paclitaxel Resistance in A549 Cells” (J Med Chem, 2024).
Activity calls are given as the source filed them. No cut-off for these calls is given here.

What was measured:
[1] = system: HEK-293T; assay: Cytotoxicity against human HEK293T cells assessed as reduction in cell viability at 0.625 to 20 uM incubated for 48 hrs by MTT assay; format: toxicity, cell-based; conditions: dose 0.625-20 µM
[2] = system: CYP1A2 versus CYP1B1; assay: (§1) Selectivity ratio of IC50 for Inhibition of human recombinant CYP1A2 to IC50 for Inhibition of human recombinant CYP1B1; format: ADME; conditions: recombinant CYP1A2 and recombinant CYP1B1, read-out: Ratio IC50
[3] = system: A549; assay: Cytotoxicity against human A549 cells assessed as reduction in cell viability at 0.625 to 20 uM incubated for 48 hrs by MTT assay; format: toxicity, cell-based; conditions: a549, 48 h, dose 0.625-20 µM
[4] = target: T1, CYP1B1 (Homo sapiens, UniProt Q16678); assay: Inhibition of human recombinant CYP1B1 using 7-ethoxyresorufin as substrate at 0.01 uM preincubated with enzyme for 5 mins followed by fluorescent substrate and NADPH addition and measured after 35 mins by EROD assay; format: ADME; conditions: recombinant CYP1B1, probe 7-ethoxyresorufin, time 40 min
T1 sequence (Q16678 whole entry): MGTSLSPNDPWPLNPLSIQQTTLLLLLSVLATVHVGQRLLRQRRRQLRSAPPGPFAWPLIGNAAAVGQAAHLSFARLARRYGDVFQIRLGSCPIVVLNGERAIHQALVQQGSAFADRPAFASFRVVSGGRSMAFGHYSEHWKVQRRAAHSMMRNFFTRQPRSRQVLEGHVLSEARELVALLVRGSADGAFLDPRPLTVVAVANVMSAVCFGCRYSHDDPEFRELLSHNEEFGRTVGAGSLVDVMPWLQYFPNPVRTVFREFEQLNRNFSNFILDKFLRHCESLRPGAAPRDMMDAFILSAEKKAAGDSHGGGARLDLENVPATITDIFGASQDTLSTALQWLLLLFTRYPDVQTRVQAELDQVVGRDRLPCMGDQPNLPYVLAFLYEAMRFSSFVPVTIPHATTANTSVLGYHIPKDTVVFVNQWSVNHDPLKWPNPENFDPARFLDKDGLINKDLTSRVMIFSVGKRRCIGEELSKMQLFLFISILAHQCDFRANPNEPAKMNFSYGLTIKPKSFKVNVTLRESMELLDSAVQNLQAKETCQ

[5] = target: T2, Cytochrome P450 1A1 (Homo sapiens, UniProt P04798); assay: Inhibition of human recombinant CYP1A1 using 7-ethoxyresorufin as substrate preincubated with enzyme for 5 mins followed by fluorescent substrate and NADPH addition and measured after 15 mins by EROD assay; format: ADME
T2 sequence (P04798 whole entry): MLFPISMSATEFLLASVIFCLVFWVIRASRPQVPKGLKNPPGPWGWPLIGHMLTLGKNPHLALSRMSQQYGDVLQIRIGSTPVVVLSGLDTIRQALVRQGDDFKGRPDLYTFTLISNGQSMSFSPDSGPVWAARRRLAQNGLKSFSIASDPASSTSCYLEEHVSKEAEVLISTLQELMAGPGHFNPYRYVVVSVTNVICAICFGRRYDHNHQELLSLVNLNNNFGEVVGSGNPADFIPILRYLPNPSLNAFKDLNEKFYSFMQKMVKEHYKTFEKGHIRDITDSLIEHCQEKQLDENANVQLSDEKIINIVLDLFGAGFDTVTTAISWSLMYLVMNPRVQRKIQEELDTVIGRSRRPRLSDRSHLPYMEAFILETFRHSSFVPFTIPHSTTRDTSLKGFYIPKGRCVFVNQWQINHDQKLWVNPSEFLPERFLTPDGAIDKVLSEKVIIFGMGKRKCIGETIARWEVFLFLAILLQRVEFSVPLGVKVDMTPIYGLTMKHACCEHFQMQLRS

[6] = target: T1, CYP1B1; assay: Inhibition of human recombinant CYP1B1 using 7-ethoxyresorufin as substrate at 1 uM preincubated with enzyme for 5 mins followed by fluorescent substrate and NADPH addition and measured after 35 mins by EROD assay; format: ADME; conditions: recombinant CYP1B1, probe 7-ethoxyresorufin, time 40 min
[7] = target: T3, Cytochrome P450 1B1 (Homo sapiens, UniProt Q16678); assay: Inhibition of human recombinant CYP1B1 using 7-ethoxyresorufin as substrate preincubated with enzyme for 5 mins followed by fluorescent substrate and NADPH addition and measured after 35 mins by EROD assay; format: ADME
T3 sequence (Q16678 whole entry): T1 sequence (Q16678 whole entry)

[8] = system: CYP1A1 versus CYP1B1; assay: (§2) Selectivity ratio of IC50 for Inhibition of human recombinant CYP1A1 to IC50 for Inhibition of human recombinant CYP1B1; format: ADME; conditions: recombinant CYP1A1 and recombinant CYP1B1, read-out: Ratio IC50
[9] = target: T4, Cytochrome P450 1A2 (Homo sapiens, UniProt P05177); assay: Inhibition of human recombinant CYP1A2 using 7-ethoxyresorufin as substrate preincubated with enzyme for 5 mins followed by fluorescent substrate and NADPH addition and measured after 50 mins by EROD assay; format: ADME
T4 sequence (P05177 whole entry): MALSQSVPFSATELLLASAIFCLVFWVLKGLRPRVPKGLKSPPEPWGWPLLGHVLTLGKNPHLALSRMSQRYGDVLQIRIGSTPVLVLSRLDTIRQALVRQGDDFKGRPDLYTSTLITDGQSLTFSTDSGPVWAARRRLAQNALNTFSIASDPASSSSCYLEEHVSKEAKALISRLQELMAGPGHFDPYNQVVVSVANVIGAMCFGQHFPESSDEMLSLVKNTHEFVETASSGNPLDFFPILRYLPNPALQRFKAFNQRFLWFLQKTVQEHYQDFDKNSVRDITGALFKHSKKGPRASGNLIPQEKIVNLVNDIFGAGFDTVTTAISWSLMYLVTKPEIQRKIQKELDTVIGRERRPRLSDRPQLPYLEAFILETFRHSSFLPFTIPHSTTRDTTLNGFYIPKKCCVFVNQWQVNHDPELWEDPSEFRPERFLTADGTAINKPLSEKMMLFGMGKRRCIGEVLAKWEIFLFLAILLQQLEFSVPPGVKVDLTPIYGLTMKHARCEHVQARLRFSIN

[10] = n-Octanol/water partition coefficient, logP of the compound by HPLC analysis; format: physicochemical
[11] = system: A549; assay: Induction of apoptosis in DMBA-stimulated PTX resistant human A549 cells assessed as apoptosis rate at 5 uM incubated for 24 hrs by flow cytometry (reference value: 6.67 +/- 1.03%); format: functional
[12] = system: A549; assay: Inhibition of tumor metastasis in DMBA-stimulated PTX resistant human A549 cells assessed as inhibition of cell migration by measuring decrease in crawling ability of cells at 2.5 to 10 uM incubated for 48 hrs by wound healing assay; format: functional, cell-based; conditions: dose 2.5-10 µM
[13] = system: A549; assay: Reversal of DMBA-stimulated PTX resistance in human A549 cells assessed as decrease in cell viability at 1.25 to 10 uM incubated for 24 hrs in presence of DMBA and paclitaxel by MTT assay; format: functional, cell-based; conditions: dose 1.25-10 µM
[14] = as §2; format: ADME; conditions: recombinant enzyme
[15] = Drug uptake in human HCT-116 cells using radiolabeled compound at 0.037 MBq incubated for 120 mins by gamma-counting analysis; format: ADME, cell-based; conditions: hct-116, 2 h
[16] = as §1; format: ADME; conditions: recombinant enzyme
[17] = Drug uptake in human A549 cells using radiolabeled compound at 0.037 MBq incubated for 120 mins by gamma-counting analysis; format: ADME, cell-based; conditions: a549, 2 h
[18] = Drug uptake in human HEK293T cells using radiolabeled compound at 0.037 MBq incubated for 120 mins by gamma-counting analysis; format: ADME, cell-based; conditions: hek-293t, 2 h
[19] = n-Octanol/PBS partition coefficient, log D of the radiolabeled compound at 0.37 MBq at pH 7.4 by gamma-counting analysis; format: physicochemical
[20] = system: A549; assay: Inhibition of tumor metastasis in DMBA-stimulated PTX resistant human A549 cells assessed as inhibition of cell invasion at 10 uM incubated for 24 hrs by Transwell assay; format: functional, cell-based
[21] = system: A549; assay: Reversal of DMBA-stimulated PTX resistance in human A549 cells assessed as decrease in cell viability at 10 uM incubated for 24 hrs in presence of DMBA and paclitaxel by MTT assay; format: functional, cell-based
[22] = system: A549; assay: Inhibition of tumor metastasis in DMBA-stimulated PTX resistant human A549 cells assessed as inhibition of cell migration at 10 uM incubated for 48 hrs by wound healing assay; format: functional, cell-based
[23] = n-octanol/water, read-out: logP

Row | SMILES | selectivity ratio [2] | inhibition at 35 min, 0.01 µM [4] [%] | IC50 [5] [nM] | inhibition at 35 min, 1 µM [6] [%] | IC50 [7] [nM] | IC50 [9] [nM] | Activity [11] [%] | inhibition [12] | Ratio IC50 [14] | also measured
1 | Cl.FCCNc1nc(-c2ccc(I)cc2)nc2ccccc12 | 4030 | 90.1 | 33.2 | 95.5 | 0.15 | 604 | 21.05 |  |  | Activity [1]: Non-Toxic; Activity [3]: Non-Toxic; selectivity ratio [8]: 221; logP [10, 23]: 3.91
2 | Nc1nc(-c2ccc(Br)cc2)nc2ccccc12 | 4060 | 82.7 | 104 | 96.4 | 0.49 | 1990 |  |  |  | selectivity ratio [8]: 211; logP [10, 23]: 2.12
3 | FCCNc1nc(-c2ccc(I)cc2)nc2ccccc12 [listing 1 of 2 here] |  |  |  |  |  |  |  | Active |  | Activity [13]: Active
4 | Cl.Nc1nc(-c2ccc(I)cc2)nc2ccccc12 | 101000 | 94.5 | 12.3 | 96.7 | 0.02 | 2030 | 18.53 |  | 617.5 | logP ([10]; octanol/water): 2.71
5 | CCNc1nc(-c2ccc(I)cc2)nc2ccccc12.Cl |  | 93.7 | 85.8 | 95.2 |  | 1500 | 26.15 |  | 2.07 10^6No_unit | Activity [1]: Non-Toxic; Activity [3]: Non-Toxic; logP [10, 23]: 3.81
6 | FCCNc1nc(-c2ccc(I)cc2)nc2ccccc12 [listing 2 of 2 here] |  |  | 36.7 |  | 0.24 | 727 |  |  | 151.87 | Drug uptake [15]: Active; Ratio IC50 [16]: 3029.17; Drug uptake [17]: Active; Drug uptake [18]: Active; logD ([19]; n-octanol/PBS, read-out: logD): 3.34
7 | CNc1nc(-c2ccc(I)cc2)nc2ccccc12 [listing 1 of 2 here] |  |  |  |  |  |  |  | Active |  | Activity [13]: Active
8 | CNc1nc(-c2ccc(I)cc2)nc2ccccc12 [listing 2 of 2 here] |  |  | 26.5 |  | 0.000747 | 1110 |  |  | 3.54 10^4No_unit | Drug uptake [15]: Active; Ratio IC50 [16]: 1.49 10^6No_unit; Drug uptake [17]: Active; Drug uptake [18]: Active; logD ([19]; octanol/water): 3.55
9 | O=c1cc(-c2ccccc2)oc2c1ccc1ccccc12 [ALPHA-NAPHTHOFLAVONE] |  | 61 | 86.7 | 95.1 |  |  | 15.53 |  |  | inhibition [20]: Active; Activity [21]: Active; inhibition [22]: Active
10 | CNc1nc(-c2ccc(I)cc2)nc2ccccc12.Cl |  | 96.6 | 27.4 | 97.1 | 0.000168 | 827 | 32.84 |  | 1.63 10^5No_unit | Activity [1]: Non-Toxic; Ratio IC50 [16]: 4.92 10^6No_unit; Activity [3]: Non-Toxic; logP ([10]; octanol/water): 3.15
11 | CCNc1nc(-c2ccc(I)cc2)nc2ccccc12 [listing 1 of 2 here] | 4.72e+06 |  | 1.63 |  | 0.000205 | 968 |  |  | 7.95 10^5No_unit | Drug uptake [15]: Active; Drug uptake [17]: Active; Drug uptake [18]: Active; logD ([19]; n-octanol/PBS, read-out: logD): 3.54
12 | CCNc1nc(-c2ccc(I)cc2)nc2ccccc12 [listing 2 of 2 here] |  |  |  |  |  |  |  | Active |  | Activity [13]: Active
13 | Nc1nc(-c2ccc(I)cc2)nc2ccccc12 |  |  |  |  |  |  |  | Active |  | 
